Data as given in ChEMBL document CHEMBL4138306, “Potent Inhibitors of Hepatitis C Virus NS3 Protease: Employment of a Difluoromethyl Group as a Hydrogen-Bond Donor” (ACS Med Chem Lett, 2018).
pEC50, pIC50: −log10 of the molar value.

Assays:
[1] = AUC in Sprague-Dawley rat at 15 mg/kg, po administered via gavage or 5 mg/kg, iv administered as 10 mins infusion by LC/MS/MS analysis; type: ADME, organism-based; conditions: in vivo
Hepatitis C virus = assay: Antiviral activity against HCV genotype 1b Con1 infected in human HuH7.5 cells assessed as inhibition of viral replication after 4 days by luciferase reporter gene assay; type: functional, organism-based, Hepacivirus hominis; conditions: isolate Con1, Huh7.5, 96 h
[2] = target: Hepatitis C virus serine protease, NS3/NS4A (Hepatitis C virus, UniProt A3EZI9+D2K2A8)
Sequence of Hepatitis C virus serine protease, NS3/NS4A (D2K2A8 whole entry): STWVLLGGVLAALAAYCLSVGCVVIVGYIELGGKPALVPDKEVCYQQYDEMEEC
Sequence of Hepatitis C virus serine protease, NS3/NS4A (A3EZI9 whole entry): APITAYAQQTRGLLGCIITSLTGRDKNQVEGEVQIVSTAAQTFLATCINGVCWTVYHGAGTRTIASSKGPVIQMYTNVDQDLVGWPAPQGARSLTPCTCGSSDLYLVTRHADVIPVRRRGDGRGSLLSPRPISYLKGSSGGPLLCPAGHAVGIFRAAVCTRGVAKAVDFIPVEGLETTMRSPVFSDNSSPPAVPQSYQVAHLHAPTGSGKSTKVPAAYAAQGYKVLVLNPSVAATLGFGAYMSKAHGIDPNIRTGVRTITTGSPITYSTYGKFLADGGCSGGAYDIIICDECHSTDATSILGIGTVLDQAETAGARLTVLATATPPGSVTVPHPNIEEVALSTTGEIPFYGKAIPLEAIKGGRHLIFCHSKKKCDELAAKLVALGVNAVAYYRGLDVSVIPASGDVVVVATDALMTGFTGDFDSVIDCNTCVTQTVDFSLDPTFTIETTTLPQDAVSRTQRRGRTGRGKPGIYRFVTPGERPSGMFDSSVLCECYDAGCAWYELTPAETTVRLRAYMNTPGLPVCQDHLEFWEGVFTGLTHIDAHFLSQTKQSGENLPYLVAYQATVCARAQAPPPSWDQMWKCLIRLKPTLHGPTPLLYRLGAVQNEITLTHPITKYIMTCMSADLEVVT
Description: Inhibition of recombinant full length HCV genotype 1a NS3/4A protease (1027 to 1711 residues) expressed in Escherichia coli strain BL21 (DE3) using RET S1 as substrate incubated for 1 min followed by substrate addition measured after 15 mins by FRET assay

[3] = Oral bioavailability in Sprague-Dawley rat at 15 mg/kg, administered via gavage by LC/MS/MS analysis; type: ADME, organism-based; conditions: in vivo
[4] = Elimination half life in Sprague-Dawley rat at 15 mg/kg, po administered via gavage or 5 mg/kg, iv administered as 10 mins infusion by LC/MS/MS analysis; type: ADME, organism-based; conditions: in vivo, read-out: beta t1/2 (converted)
[5] = Clearance in Sprague-Dawley rat at 15 mg/kg, po administered via gavage or 5 mg/kg, iv administered as 10 mins infusion by LC/MS/MS analysis; type: ADME, organism-based; conditions: in vivo
[6] = Drug uptake in Sprague-Dawley rat liver at 15 mg/kg, po administered via gavage by LC/MS/MS analysis; type: ADME, organism-based; conditions: in vivo, read-out: Drug uptake
[7] = Half life in human liver microsomes by LC/MS/MS analysis; type: ADME, microsome
[8] = Permeability from basolateral to apical side in human Caco2 cells; type: ADME, cell-based; conditions: Caco-2, read-out: permeability
[9] = Permeability from apical to basolateral side in human Caco2 cells; type: ADME, cell-based; conditions: Caco-2, read-out: permeability

pEC50 (Hepatitis C virus)	pIC50 [2]	half-life [7]	Compound	other results
			C=C[C@@H]1C[C@]1(NC(=O)[C@@H]1C[C@@H](Oc2ncc(OC)c3ccc(Cl)cc23)CN1C(=O)[C@@H](NC(=O)OC(C)(C)C)C(C)(C)C)C(=O)NS(=O)(=O)C1CC1	AUC at 10 min [1]: 1 µM·h
7.74	8.22		COc1cnc(O[C@@H]2C[C@@H](C(=O)N[C@]3(C(=O)NS(=O)(=O)C4CC4)C[C@H]3C3CC3)N(C(=O)[C@@H](NC(=O)OC(C)(C)C)C(C)(C)C)C2)c2cc(Cl)ccc12	AUC at 10 min [1]: 19.6 µM·h; bioavailability [3]: 34 to 44.2%; half-life [4]: 6 to 10 h; clearance [5]: 5.2 mL/min/kg
7.80	8.30		CC[C@@H]1C[C@]1(NC(=O)[C@@H]1C[C@@H](Oc2ncc(OC)c3ccc(Cl)cc23)CN1C(=O)[C@@H](NC(=O)OC(C)(C)C)C(C)(C)C)C(=O)NS(=O)(=O)C1CC1	AUC at 10 min [1]: 6.89 µM·h; concentration [6]: 40.3 µM
6.47	7.40	2 h	COc1cnc(O[C@@H]2C[C@@H](C(=O)NC3(C(=O)NS(=O)(=O)C4CC4)CC3)N(C(=O)[C@@H](NC(=O)OC(C)(C)C)C(C)(C)C)C2)c2cc(Cl)ccc12	
6.29	6.01		COc1cnc(O[C@@H]2C[C@@H](C(=O)N[C@@H](CC(F)F)C(=O)NS(=O)(=O)C3CC3)N(C(=O)[C@@H](NC(=O)OC(C)(C)C)C(C)(C)C)C2)c2cc(Cl)ccc12	
8.10 to 8.12		2 h	COc1cnc(O[C@@H]2C[C@@H](C(=O)N[C@]3(C(=O)NS(=O)(=O)C4CC4)C[C@H]3C(F)F)N(C(=O)[C@@H](NC(=O)OC(C)(C)C)C(C)(C)C)C2)c2cc(Cl)ccc12	Papp B→A [8]: 4.7 ×10⁻⁶ cm/s; AUC at 10 min [1]: 0.05 µM·h; concentration [6]: 0.27 µM; bioavailability [3]: 0.9%; half-life [4]: 2.6 h; clearance [5]: 58 mL/min/kg; Papp A→B [9]: < 1.5 ×10⁻⁶ cm/s
5.89	6.58		COc1cnc(O[C@@H]2C[C@@H](C(=O)NC3(C(=O)NS(=O)(=O)C4CC4)CCC3)N(C(=O)[C@@H](NC(=O)OC(C)(C)C)C(C)(C)C)C2)c2cc(Cl)ccc12	
< 6.00	5.10		CC[C@@H](NC(=O)[C@@H]1C[C@@H](Oc2ncc(OC)c3ccc(Cl)cc23)CN1C(=O)[C@@H](NC(=O)OC(C)(C)C)C(C)(C)C)C(=O)NS(=O)(=O)C1CC1	
< 6.00	5.61		COc1cnc(O[C@@H]2C[C@@H](C(=O)N[C@H](CC(F)F)C(=O)NS(=O)(=O)C3CC3)N(C(=O)[C@@H](NC(=O)OC(C)(C)C)C(C)(C)C)C2)c2cc(Cl)ccc12	
6.90	7.77	0.783 h	COc1cnc(O[C@@H]2C[C@@H](C(=O)N[C@]3(C(=O)NS(=O)(=O)C4CC4)C[C@H]3C(F)(F)F)N(C(=O)[C@@H](NC(=O)OC(C)(C)C)C(C)(C)C)C2)c2cc(Cl)ccc12	
	< 6.00		COc1ccc2c(O[C@@H]3C[C@@H](C(=O)NC(CC(F)F)C(=O)NS(=O)(=O)C4CC4)N(C(=O)[C@@H](NC(=O)OC(C)(C)C)C(C)(C)C)C3)cc(-c3ccccc3)nc2c1 (stereo partly drawn)	
< 6.00	5.66		COc1cnc(O[C@@H]2C[C@@H](C(=O)NC(C)(C)C(=O)NS(=O)(=O)C3CC3)N(C(=O)[C@@H](NC(=O)OC(C)(C)C)C(C)(C)C)C2)c2cc(Cl)ccc12	
< 6.00	5.51		CC[C@H](NC(=O)[C@@H]1C[C@@H](Oc2ncc(OC)c3ccc(Cl)cc23)CN1C(=O)[C@@H](NC(=O)OC(C)(C)C)C(C)(C)C)C(=O)NS(=O)(=O)C1CC1	
4.64	4.48	0.892 h	C=CC[C@](C)(NC(=O)[C@@H]1C[C@@H](Oc2ncc(OC)c3ccc(Cl)cc23)CN1C(=O)[C@@H](NC(=O)OC(C)(C)C)C(C)(C)C)C(=O)NS(=O)(=O)C1CC1	
7.19	7.89	1.6 h	COc1cnc(O[C@@H]2C[C@@H](C(=O)N[C@]3(C(=O)NS(=O)(=O)C4CC4)C[C@H]3C)N(C(=O)[C@@H](NC(=O)OC(C)(C)C)C(C)(C)C)C2)c2cc(Cl)ccc12	
7.51	7.85	3.33 h	COc1cnc(O[C@@H]2C[C@@H](C(=O)N[C@]3(C(=O)NS(=O)(=O)C4CC4)C[C@H]3CC(F)F)N(C(=O)[C@@H](NC(=O)OC(C)(C)C)C(C)(C)C)C2)c2cc(Cl)ccc12	
